Laboratory results: patent publication US12358951
Read-outs that look alike come from different tables or passages of the source.

Conditions: amide bond, THF

## CC[C@@H]1CN(CC2CCCC2)[C@@H](C)C(=O)N(C)[C@@H](CC(C)C)C(=O)N[C@@H](C2CCCCC2)C(=O)N[C@@H](CNC(=O)OCc2ccccc2)C(=O)N[C@@H]([C@H](C)OCc2ccccc2)C(=O)N1
From CC[C@@H](N)CN(CC1CCCC1)[C@@H](C)C(=O)N(C)[C@@H](CC(C)C)C(=O)N[C@H](C(=O)N[C@@H](CNC(=O)OCc1ccccc1)C(=O)N[C@H](C(=O)O)[C@H](C)OCc1ccccc1)C1CCCCC1, HATU, DIPEA, 1.24 mM, 25.0 °C, 2.5 h
  ring closure, yield of all isomers: 45.7%

## CCCCCC[C@H]1OC[C@@H](C)NC(=O)[C@H](COC2CC3(C2)CN(C(=O)OC(C)(C)C)C3)NC(=O)[C@H](CNC(=O)OCc2ccccc2)NC(=O)[C@H](C2CCCCCC2)NC(=O)[C@H](CCC)N(C)C(=O)[C@@H]1C
From CCCCCC[C@@H](OC[C@@H](C)N)[C@@H](C)C(=O)N(C)[C@@H](CCC)C(=O)N[C@H](C(=O)N[C@@H](CNC(=O)OCc1ccccc1)C(=O)N[C@@H](COC1CC2(C1)CN(C(=O)OC(C)(C)C)C2)C(=O)O)C1CCCCCC1, HATU, DIPEA, 1.35 mM, 25.0 °C, 2.5 h
  ring closure, yield of all isomers: 39%

## CCCCCCN1C[C@@H](CCF)NC(=O)[C@H]([C@H](C)OCc2ccccc2)NC(=O)[C@H](CNC(=O)OCc2ccccc2)NC(=O)[C@H](C2CCCCC2)NC(=O)[C@H](CC(C)C)N(C)C(=O)[C@@H]1C
From CCCCCCN(C[C@H](N)CCF)[C@@H](C)C(=O)N(C)[C@@H](CC(C)C)C(=O)N[C@H](C(=O)N[C@@H](CNC(=O)OCc1ccccc1)C(=O)N[C@H](C(=O)O)[C@H](C)OCc1ccccc1)C1CCCCC1, HATU/DIPEA, 1.36 mM, 25.0 °C, 20.0 h
  ring closure, yield of all isomers: 43.4%

## CCCC[C@H]1C(=O)N(C)[C@@H](CC(C)C)C(=O)N[C@@H](C2CCCCC2)C(=O)N[C@@H](CNC(=O)OCc2ccccc2)C(=O)N[C@@H](COCCCNC(=O)OC(C)(C)C)C(=O)N[C@H](C)CN1CC1CC1
From CCCC[C@@H](C(=O)N(C)[C@@H](CC(C)C)C(=O)N[C@H](C(=O)N[C@@H](CNC(=O)OCc1ccccc1)C(=O)O)C1CCCCC1)N(CC1CC1)C[C@@H](C)NC(=O)[C@@H](N)COCCCNC(=O)OC(C)(C)C, HATU/DIPEA, 1.14 mM, 19.0 h
  ring closure, yield of all isomers: 30%

## CCCCCC[C@H]1OC[C@@H](C)NC(=O)[C@H](CNC(=O)OC(C)(C)C)NC(=O)[C@H](CNC(=O)OCc2ccccc2)NC(=O)[C@H](C2CCCCC2)NC(=O)[C@H](CC(C)C)N(C)C(=O)[C@@H]1C
From CCCCCC[C@@H](OC[C@@H](C)N)[C@@H](C)C(=O)N(C)[C@@H](CC(C)C)C(=O)N[C@H](C(=O)N[C@@H](CNC(=O)OCc1ccccc1)C(=O)N[C@@H](CNC(=O)OC(C)(C)C)C(=O)O)C1CCCCC1, HATU/DIPEA, 1.08 mM, 25.0 °C, 16.0 h
  ring closure, yield of all isomers: 55%
